Read-outs that look alike come from different tables or passages of the source.
What was measured:
Type in all cases: cell-based
[1] = target: T1, human muscarinic M1 receptor (Homo sapiens, UniProt P11229); test: Alphascreen Surefire phospho-ERK1/2 functional assay, M1; conditions: phospho-ERK1/2; for EC50: read-out: pEC50 M1 (converted); for Emax: CHO, read-out: % Emax cf. ACh (M1), CHO cells stably expressing human M1; for Emax / % Emax cf. ACh (M1): relative to ACh
T1 sequence (P11229 1-460): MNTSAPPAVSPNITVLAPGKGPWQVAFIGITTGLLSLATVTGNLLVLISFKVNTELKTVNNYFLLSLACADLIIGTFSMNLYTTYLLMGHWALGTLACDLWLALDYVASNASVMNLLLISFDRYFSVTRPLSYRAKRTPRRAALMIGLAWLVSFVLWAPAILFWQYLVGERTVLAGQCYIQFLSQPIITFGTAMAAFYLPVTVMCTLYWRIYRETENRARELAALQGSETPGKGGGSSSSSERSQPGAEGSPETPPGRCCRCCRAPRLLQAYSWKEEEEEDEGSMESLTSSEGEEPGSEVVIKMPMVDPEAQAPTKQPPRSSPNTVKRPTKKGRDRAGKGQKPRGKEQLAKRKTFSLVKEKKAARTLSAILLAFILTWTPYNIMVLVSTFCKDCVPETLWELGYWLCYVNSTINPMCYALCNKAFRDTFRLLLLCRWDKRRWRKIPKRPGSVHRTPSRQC
Protocol: (§1) ERK1/2 phosphorylation is a downstream consequence of both Gq/11 and Gi/o protein coupled receptor activation, making it highly suitable for the assessment of M1, M3 (Gq/11 coupled) and M2, M4 receptors (Gi/o coupled), rather than using different assay formats for different receptor subtypes. CHO cells stably expressing the human muscarinic M1, M2, M3 or M4 receptor were plated (25K/well) onto 96-well tissue culture plates in MEM-alpha+10% dialysed FBS. Once adhered, cells were serum-starved overnight. Agonist stimulation was performed by the addition of 5 μL agonist to the cells for 5 min (37° C.). Media was removed and 50 μL of lysis buffer added. After 15 min, a 4 μL sample was transferred to 384-well plate and 7 μL of detection mixture added.

[2] = target: T2, human muscarinic M4 receptor (Homo sapiens, UniProt P08173); test: Alphascreen Surefire phospho-ERK1/2 functional assay, M4; conditions: for EC50: read-out: pEC50 M4 (converted); for Emax: CHO
T2 construct: expressed in transfected cells
T2 sequence (P08173 1-479): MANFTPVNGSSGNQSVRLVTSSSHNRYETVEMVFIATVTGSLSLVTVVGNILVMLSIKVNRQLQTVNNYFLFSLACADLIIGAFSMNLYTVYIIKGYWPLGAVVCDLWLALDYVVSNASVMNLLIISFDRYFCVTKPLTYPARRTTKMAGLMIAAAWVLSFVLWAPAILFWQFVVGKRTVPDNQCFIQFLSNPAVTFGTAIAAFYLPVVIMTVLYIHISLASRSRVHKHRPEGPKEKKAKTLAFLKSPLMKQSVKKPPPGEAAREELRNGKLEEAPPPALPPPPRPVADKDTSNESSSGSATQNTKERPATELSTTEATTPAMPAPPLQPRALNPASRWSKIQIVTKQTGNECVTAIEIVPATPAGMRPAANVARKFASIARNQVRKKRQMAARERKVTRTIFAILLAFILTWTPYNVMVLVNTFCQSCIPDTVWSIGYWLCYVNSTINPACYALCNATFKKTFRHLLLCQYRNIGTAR

[3] = target: T3, human muscarinic M2 receptor (Homo sapiens, UniProt P08172); test: Alphascreen Surefire phospho-ERK1/2 functional assay, M2; conditions: for EC50: CHO cells stably expressing human M2, read-out: pEC50 M2 (converted); for Emax: CHO, read-out: % Emax cf. ACh (M2), CHO cells stably expressing human M2, relative to ACh
T3 sequence (P08172 1-466): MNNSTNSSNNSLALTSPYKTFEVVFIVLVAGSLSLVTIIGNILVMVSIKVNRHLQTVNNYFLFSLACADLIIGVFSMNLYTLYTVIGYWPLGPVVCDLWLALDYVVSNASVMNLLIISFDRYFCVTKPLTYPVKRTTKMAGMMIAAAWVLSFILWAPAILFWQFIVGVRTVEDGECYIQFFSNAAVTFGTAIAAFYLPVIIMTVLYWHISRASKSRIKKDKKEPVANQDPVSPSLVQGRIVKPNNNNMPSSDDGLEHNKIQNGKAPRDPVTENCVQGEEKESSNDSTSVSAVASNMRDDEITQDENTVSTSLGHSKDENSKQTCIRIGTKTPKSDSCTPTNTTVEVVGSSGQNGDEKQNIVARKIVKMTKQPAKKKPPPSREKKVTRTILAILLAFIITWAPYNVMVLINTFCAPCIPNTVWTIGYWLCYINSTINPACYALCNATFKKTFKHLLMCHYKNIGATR
Protocol: as §1

[4] = target: T4, human muscarinic M3 receptor (Homo sapiens, UniProt P20309); test: Alphascreen Surefire phospho-ERK1/2 functional assay, M3; conditions: for EC50: read-out: pEC50 M3 (converted); for Emax: CHO
T4 construct: expressed in transfected cells
Protocol: as §1

[5] = CHO cells stably expressing human M1
[6] = CHO cells stably expressing human M4, phospho-ERK1/2
[7] = read-out: % Emax cf. ACh (M4), CHO cells stably expressing human M4, phospho-ERK1/2, relative to ACh
[8] = CHO cells stably expressing human M3, phospho-ERK1/2
[9] = read-out: % Emax cf. ACh (M3), CHO cells stably expressing human M3, phospho-ERK1/2, relative to ACh
[10] = CHO cells stably expressing human M4, phospho-ERK1/2, relative to ACh

T4 sequence (P20309 whole entry): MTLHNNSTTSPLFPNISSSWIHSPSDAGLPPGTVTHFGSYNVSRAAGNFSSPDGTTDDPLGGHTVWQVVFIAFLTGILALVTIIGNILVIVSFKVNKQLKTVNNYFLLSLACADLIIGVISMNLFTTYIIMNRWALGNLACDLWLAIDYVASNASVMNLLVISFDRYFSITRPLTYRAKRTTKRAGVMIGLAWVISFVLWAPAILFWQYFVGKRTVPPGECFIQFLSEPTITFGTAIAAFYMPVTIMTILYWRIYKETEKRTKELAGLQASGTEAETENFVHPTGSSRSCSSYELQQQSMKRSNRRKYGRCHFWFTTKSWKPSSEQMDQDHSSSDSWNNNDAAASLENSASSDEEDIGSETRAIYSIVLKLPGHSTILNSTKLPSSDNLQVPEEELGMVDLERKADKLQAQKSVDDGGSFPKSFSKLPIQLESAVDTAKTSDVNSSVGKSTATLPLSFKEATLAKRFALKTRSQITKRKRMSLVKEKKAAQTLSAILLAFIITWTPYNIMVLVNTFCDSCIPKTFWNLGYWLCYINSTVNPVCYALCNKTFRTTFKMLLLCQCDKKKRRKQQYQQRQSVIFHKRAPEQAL

Structure (SMILES) | EC50 [1, 5] | Emax [1] | EC50 [2, 6] | Emax [2, 7] | EC50 [3] | Emax [3] | EC50 [4, 8] | Emax [4, 9] | pEC50 M1 [1, 5] | % Emax cf. ACh (M1) [1, 5] | pEC50 M4 [2, 6] | % Emax cf. ACh (M4) [2, 10] | pEC50 M2 ([3]; CHO cells stably expressing human M2) | % Emax cf. ACh (M2) ([3]; CHO cells stably expressing human M2, relative to ACh) | pEC50 M3 [4, 8] | % Emax cf. ACh (M3) ([4]; CHO cells stably expressing human M3, phospho-ERK1/2, relative to ACh) | Emax ([2]; read-out: % Emax cf. ACh (M4)) | Emax ([4]; read-out: % Emax cf. ACh (M3))
CCOC(=O)N1CC2(CCC(N3CCC(N(C(C)=O)C4CC4)CC3)C2)C1 (racemic) [3-1 Racemic] | > 20000 nM | 19% | 10 nM | 46% | > 20 µM | 2% | > 20 µM | 5% | – | – | – | – | – | – | – | – | – | –
CCOC(=O)N1CCC2(CC(N3CCC(N(CC)C(C)=O)CC3)C2)C1 (single isomer, unassigned) [2-2 Isomer 2] | – | – | – | – | – | – | – | – | 6.2 | 91% | 7.4 | 99% | < 4.7 | 18% | < 4.7 | 9% | – | –
CCOC(=O)N1CCC2(CC(N3CCC(N(C(C)=O)C4CC4)CC3)C2)C1 (single isomer, unassigned) [2-3 Isomer 2] | 200 nM | – | 31.6 nM | – | > 20 µM | 13% | > 20 µM | 6% | – | 93% | – | 93% | – | – | – | – | – | –
CCOC(=O)N1CCC2(CC(N3CCC(N(C(=O)C(F)(F)F)C4CC4)CC3)C2)C1 (single isomer, unassigned) [2-4 Isomer 2] | 200 nM | 104% | 31.6 nM | 114% | > 20 µM | 3% | > 20 µM | 9% | – | – | – | – | – | – | – | – | – | –
CCOC(=O)N1CCC2(CC(N3CCC(N(C(=O)CC)C4CC4)CC3)C2)C1 (single isomer, unassigned) [2-5 Isomer 2] | 631 nM | 57% | 100 nM | 91% | > 20 µM | 5% | > 20 µM | 5% | – | – | – | – | – | – | – | – | – | –
CCOC(=O)N1CCC2(CC(N3CCC(N(C(C)=O)C4CCC4)CC3)C2)C1 (single isomer, unassigned) [2-6 Isomer 2] | 100 nM | 101% | 31.6 nM | 98% | > 20 µM | 7% | > 20 µM | 14% | – | – | – | – | – | – | – | – | – | –
CCOC(=O)N1CCC2(CC(N3CCC(N(CC)CC(F)(F)F)CC3)C2)C1 (single isomer, unassigned) [2-7 Isomer 2] | 79.4 nM | 120% | 12.6 nM | 118% | > 20 µM | 16% | > 20 µM | 10% | – | – | – | – | – | – | – | – | – | –
CCOC(=O)N1CCC2(CC(N3CCC(N(CCOC)C4CC4)CC3)C2)C1 (single isomer, unassigned) [2-8 Isomer 2] | > 20000 nM | 4% | 20 nM | 57% | > 20 µM | 6% | > 20 µM | 6% | – | – | – | – | – | – | – | – | – | –
CCOC(=O)N1CCC2(CC(N3CCC(N(CC(=O)OC)C4CC4)CC3)C2)C1 (single isomer, unassigned) [2-9 Isomer 2] | > 20000 nM | 14% | 100 nM | 92% | > 20 µM | 6% | > 20 µM | 5% | – | – | – | – | – | – | – | – | – | –
CCOC(=O)N1CCC2(CC(N3CCC(N(Cc4ccon4)C4CC4)CC3)C2)C1 (single isomer, unassigned) [2-10 Isomer 2] | 794 nM | 42% | 31.6 nM | 122% | > 20 µM | 11% | > 20 µM | 7% | – | – | – | – | – | – | – | – | – | –
CCOC(=O)N1CCC2(CC(N3CCC(C(C)N(C(C)=O)C4CC4)CC3)C2)C1 (single isomer, unassigned) [2-13 Isomer 2] | > 20000 nM | 18% | 126 nM | 88% | > 20 µM | 5% | > 20 µM | 4% | – | – | – | – | – | – | – | – | – | –
CCOC(=O)N1CCC2(CC(N3CCC(C(C)N(C(=O)CC)C4CC4)CC3)C2)C1 (single isomer, unassigned) [2-14 Isomer 2] | 2510 nM | 47% | 100 nM | 108% | > 20 µM | 12% | > 20 µM | 5% | – | – | – | – | – | – | – | – | – | –
CCOC(=O)N1CCC2(CC(N3CCC(N(C=O)CC)CC3)C2)C1 (single isomer, unassigned) [2-16 Isomer 2] | 398 nM | 89% | 39.8 nM | 91% | > 20 µM | 5% | > 20 µM | 2% | – | – | – | – | – | – | – | – | – | –
CCOC(=O)N1CCC2(CC(N3CCC(N(CC(C)C)C(C)=O)CC3)C2)C1 (single isomer, unassigned) [2-19 Isomer 2] | 100 nM | – | 63.1 nM | – | > 20 µM | 31% | > 20 µM | 58% | – | 115% | – | 118% | – | – | – | – | – | –
CCOC(=O)N1CCC2(CC(N3CCC(N(CC4CC4)C(C)=O)CC3)C2)C1 (single isomer, unassigned) [2-20 Isomer 2] | 200 nM | – | 39.8 nM | – | > 20 µM | 60% | > 20 µM | 33% | – | 113% | – | 108% | – | – | – | – | – | –
CCOC(=O)N1CCC2(CC(N3CCC(N(CC(F)F)C(C)=O)CC3)C2)C1 (single isomer, unassigned) [2-24 Isomer 2] | 398 nM | 91% | 10 nM | 124% | > 20 µM | 5% | > 20 µM | 17% | – | – | – | – | – | – | – | – | – | –
CCOC(=O)N1CCC2(CC(N3CCC(N(CC(C)(C)OC)C(C)=O)CC3)C2)C1 (single isomer, unassigned) [2-29 Isomer 2] | 200 nM | – | 158 nM | – | 1.26 µM | 29% | > 20 µM | 73% | – | 99% | – | 84% | – | – | – | – | – | –
CC(=O)OCC[N+](C)(C)C [ACh, acetylcholine, reference compound] | – | – | – | – | – | – | – | – | – | – | – | – | – | – | – | – | 110% | 115%
CCOC(=O)N1CC2(CC(N3CCC(N(CC)C(C)=O)CC3)C2)C1 [Example 1-2, Ethyl 6-{4-[acetyl(ethyl)amino]piperidin-1-yl}-2-azaspiro[3.3]heptane-2-carboxylate] | 6310 nM | 59% | 251 nM | 103% | – | – | – | – | – | – | – | – | – | – | – | – | – | –

— patent US10167272B2, “Muscarinic agonists” (Heptares Therapeutics Limited, priority 2015, dated 2019)
